Laboratory results from PubChem BioAssay AID256 (DTP/NCI, 2004).
Toxic doses and inconclusive results are not listed.

Test system: CD2F1 mice, L1210 leukemia ip, survival T/C
Assay: NCI In Vivo Anticancer Drug Screen. Data for tumor model L1210 Leukemia (intraperitoneal) in CD2F1 (CDF1) mice
Details: higher = longer survival
Method in brief: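 Tumor-bearing mice (transplanted tumor) were split into treated and vehicle control groups, and the measured endpoint of each treated group was divided by that of its vehicle controls.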

Q: How did the T/C (endpoint: median survival time, dose: 11.0 mg/kg/injection, schedule: Q01DX009 (ip), vehicle: water) turn out when `CN(Cc1cnc2nc(N)nc(N)c2n1)c1ccc(C(=O)NC(CCC(=O)O)C(=O)O)cc1.[W]` (configuration not stated) was run?
A: Its T/C is 178 % of control.

Q: What about the T/C (endpoint: median survival time, dose: 12.0 mg/kg/injection, schedule: Q01DX009 (ip), vehicle: water) of the same compound?
A: Its T/C is 202 % of control.

Q: What about the T/C (endpoint: median survival time, dose: 12.0 mg/kg/injection, schedule: Q01DX009 (other), vehicle: water) of the same compound?
A: The T/C was 202 % of control.

Q: And the T/C (endpoint: median survival time, dose: 14.0 mg/kg/injection, schedule: Q01DX009 (ip), vehicle: water)?
A: The T/C was 190 % of control.

Q: What about the T/C (endpoint: median survival time, dose: 14.0 mg/kg/injection, schedule: Q## X009 (ip), vehicle: water) of the same compound?
A: The T/C was 190 % of control.

Q: What about the T/C (endpoint: median survival time, dose: 21.0 mg/kg/injection, schedule: Q01DX009 (ip), vehicle: water) of the same compound?
A: The T/C was 178 % of control.

Q: And the T/C (endpoint: median survival time, dose: 22.0 mg/kg/injection, schedule: Q01DX009 (ip), vehicle: water)?
A: The T/C was 190 % of control.

Q: And the T/C (endpoint: median survival time, dose: 22.0 mg/kg/injection, schedule: Q01DX009 (other), vehicle: water)?
A: Its T/C is 190 % of control.

Q: What about the T/C (endpoint: median survival time, dose: 41.0 mg/kg/injection, schedule: Q01DX009 (ip), vehicle: water) of the same compound?
A: The T/C was 166 % of control.

Q: And the T/C (endpoint: median survival time, dose: 42.0 mg/kg/injection, schedule: Q01DX009 (ip), vehicle: water)?
A: The T/C was 166 % of control.

Q: And the T/C (endpoint: median survival time, dose: 42.0 mg/kg/injection, schedule: Q01DX009 (other), vehicle: water)?
A: The T/C was 166 % of control.

Q: How did the T/C (endpoint: mean survival time, dose: 12.5 mg/kg/injection, schedule: Q01DX009 (ip), vehicle: saline with Tween-80) turn out when `CSC(=S)N/N=C/c1ccccc1O` was run?
A: Its T/C is 95 % of control.

Q: What about the T/C (endpoint: mean survival time, dose: 12.5 mg/kg/injection, schedule: Q04DX003 (ip), vehicle: saline with Tween-80) of the same compound?
A: The T/C was 100 % of control.

Q: And the T/C (endpoint: mean survival time, dose: 25.0 mg/kg/injection, schedule: Q01DX009 (ip), vehicle: saline with Tween-80)?
A: The T/C was 87 % of control.

Q: And the T/C (endpoint: mean survival time, dose: 25.0 mg/kg/injection, schedule: Q04DX003 (ip), vehicle: saline with Tween-80)?
A: The T/C was 97 % of control.

Q: And the T/C (endpoint: mean survival time, dose: 50.0 mg/kg/injection, schedule: Q04DX003 (ip), vehicle: saline with Tween-80)?
A: Its T/C is 95 % of control.

Q: How did the T/C (endpoint: mean survival time, dose: 50.0 mg/kg/injection, schedule: Q01DX009 (ip), vehicle: Klucel (hydroxypropylcellulose) (HPC)) turn out when `N#Cc1cnc(N)[nH]c1=O` was run?
A: The T/C was 88 % of control.

Q: And the T/C (endpoint: mean survival time, dose: 100.0 mg/kg/injection, schedule: Q01DX009 (ip), vehicle: Klucel (hydroxypropylcellulose) (HPC))?
A: The T/C was 88 % of control.

Q: What about the T/C (endpoint: mean survival time, dose: 200.0 mg/kg/injection, schedule: Q01DX009 (ip), vehicle: Klucel (hydroxypropylcellulose) (HPC)) of the same compound?
A: The T/C was 91 % of control.

Q: For `CC(=O)Nc1ccc(SCCCc2c(N)nc(N)nc2N)cc1`, which T/C (endpoint: mean survival time, dose: 100.0 mg/kg/injection, schedule: Q01DX001 (ip), vehicle: saline with Tween-80) is on record?
A: The T/C was 100 % of control.

Q: And the T/C (endpoint: mean survival time, dose: 200.0 mg/kg/injection, schedule: Q01DX001 (ip), vehicle: saline with Tween-80)?
A: The T/C was 100 % of control.

Q: Which T/C (endpoint: mean survival time, dose: 100.0 mg/kg/injection, schedule: Q01DX001 (ip), vehicle: Klucel (hydroxypropylcellulose) (HPC)) does the source give for `CCOC(=O)CCC1(CCC(=O)OCC)c2ccccc2-c2ccccc21` here?
A: The T/C was 96 % of control.

Q: And the T/C (endpoint: mean survival time, dose: 200.0 mg/kg/injection, schedule: Q01DX001 (ip), vehicle: Klucel (hydroxypropylcellulose) (HPC))?
A: The T/C was 104 % of control.

Q: What about the T/C (endpoint: mean survival time, dose: 400.0 mg/kg/injection, schedule: Q01DX001 (ip), vehicle: Klucel (hydroxypropylcellulose) (HPC)) of the same compound?
A: Its T/C is 104 % of control.

Q: What does the source list for `O=S(=O)(OC(Cc1ccccc1)Cc1ccccc1)c1ccc(Br)cc1`?
A: T/C (endpoint: mean survival time, dose: 50.0 mg/kg/injection, schedule: Q01DX009 (ip), vehicle: saline with Tween-80): 95 % of control; T/C (endpoint: mean survival time, dose: 100.0 mg/kg/injection, schedule: Q01DX009 (ip), vehicle: saline with Tween-80): 91 % of control; T/C (endpoint: mean survival time, dose: 200.0 mg/kg/injection, schedule: Q01DX009 (ip), vehicle: saline with Tween-80): 95 % of control

Q: Which results are given for `S=C1NC(c2ccccc2)NC(c2ccccc2)S1` (configuration not stated)?
A: T/C (endpoint: mean survival time, dose: 12.0 mg/kg/injection, schedule: Q04DX003 (ip), vehicle: other): 86 % of control; T/C (endpoint: mean survival time, dose: 25.0 mg/kg/injection, schedule: Q04DX003 (ip), vehicle: other): 97 % of control; T/C (endpoint: mean survival time, dose: 50.0 mg/kg/injection, schedule: Q04DX003 (ip), vehicle: other): 90 % of control

Q: For `CCCCCCCCCCNC(=O)C[n+]1cccc(C(=O)NCc2ccccc2)c1`, which T/C (endpoint: mean survival time, dose: 12.5 mg/kg/injection, schedule: Q01DX009 (ip), vehicle: saline sonified) is on record?
A: The T/C was 90 % of control.

Q: What about the T/C (endpoint: mean survival time, dose: 12.5 mg/kg/injection, schedule: Q04DX003 (ip), vehicle: saline sonified) of the same compound?
A: Its T/C is 104 % of control.

Q: What about the T/C (endpoint: mean survival time, dose: 25.0 mg/kg/injection, schedule: Q04DX003 (ip), vehicle: saline sonified) of the same compound?
A: Its T/C is 104 % of control.

Q: What about the T/C (endpoint: mean survival time, dose: 50.0 mg/kg/injection, schedule: Q04DX003 (ip), vehicle: saline sonified) of the same compound?
A: The T/C was 101 % of control.

Q: What does the source list for `O=C1C=C(SCCO)C(=O)c2ccccc21`?
A: T/C (endpoint: mean survival time, dose: 0.63 mg/kg/injection, schedule: Q01DX009 (ip), vehicle: saline sonified): 91 % of control; T/C (endpoint: mean survival time, dose: 1.25 mg/kg/injection, schedule: Q01DX009 (ip), vehicle: saline sonified): 94 % of control; T/C (endpoint: mean survival time, dose: 1.25 mg/kg/injection, schedule: Q04DX003 (ip), vehicle: saline with Tween-80): 92 % of control; T/C (endpoint: mean survival time, dose: 2.5 mg/kg/injection, schedule: Q01DX009 (ip), vehicle: saline sonified): 105 % of control; T/C (endpoint: mean survival time, dose: 2.5 mg/kg/injection, schedule: Q04DX003 (ip), vehicle: saline with Tween-80): 90 % of control

Q: `CCCCCCCCCCCCCCCCCC(CCCCCCCC)CCCCCCCC` was tested. Which T/C (endpoint: mean survival time, dose: 100.0 mg/kg/injection, schedule: Q01DX001 (ip), vehicle: saline) did it give?
A: The T/C was 96 % of control.

Q: What about the T/C (endpoint: mean survival time, dose: 200.0 mg/kg/injection, schedule: Q01DX001 (ip), vehicle: saline) of the same compound?
A: Its T/C is 94 % of control.

Q: And the T/C (endpoint: mean survival time, dose: 400.0 mg/kg/injection, schedule: Q01DX001 (ip), vehicle: saline)?
A: Its T/C is 91 % of control.
